Test results from US11007503B2, “Systems and methods for a cooled nitric oxide generator” (The General Hospital Corporation, priority 2017, dated 2021).

System: rabbits with acute pulmonary hypertension

Question: Which “RVSP at one min after breathing NO” value (electrically generated NO (20, 40 or 80 ppm) produced on inspiration by prototype generator, 50% O2, RVSP 30 mmHg before NO breathing, FIG. 14) does the source give for `[N]=O` [NO, nitric oxide] here?
Answer: Its value is 24 mmHg.

Question: How did the “right ventricular systolic pressure (RVSP) after U46619 infusion” value (anesthetized rabbits, continuous infusion over 60 mins, RVSP increased from baseline 14±2 mmHg) turn out when `CCCCC[C@H](O)/C=C/[C@@H]1[C@@H](C/C=C\CCCC(=O)O)[C@H]2CO[C@@H]1C2` [U46619] was run?
Answer: The value was 28-30 mmHg.
